Reference: patent publication US20240246937A1 (MERCK SHARP & DOHME LLC, priority 2021, published 2024)

These compounds were tested against recombinant IL4I1 (Homo sapiens (Human), UniProt Q96RQ9) (assay: IL4I1 Enzymatic Assay (Amplex Red/HRP coupled fluorescence detection of H2O2)). Conditions: 240 min; recombinant IL4I1, four-hour pre-incubation with compound.
recombinant IL4I1, sequence (Q96RQ9 22-567): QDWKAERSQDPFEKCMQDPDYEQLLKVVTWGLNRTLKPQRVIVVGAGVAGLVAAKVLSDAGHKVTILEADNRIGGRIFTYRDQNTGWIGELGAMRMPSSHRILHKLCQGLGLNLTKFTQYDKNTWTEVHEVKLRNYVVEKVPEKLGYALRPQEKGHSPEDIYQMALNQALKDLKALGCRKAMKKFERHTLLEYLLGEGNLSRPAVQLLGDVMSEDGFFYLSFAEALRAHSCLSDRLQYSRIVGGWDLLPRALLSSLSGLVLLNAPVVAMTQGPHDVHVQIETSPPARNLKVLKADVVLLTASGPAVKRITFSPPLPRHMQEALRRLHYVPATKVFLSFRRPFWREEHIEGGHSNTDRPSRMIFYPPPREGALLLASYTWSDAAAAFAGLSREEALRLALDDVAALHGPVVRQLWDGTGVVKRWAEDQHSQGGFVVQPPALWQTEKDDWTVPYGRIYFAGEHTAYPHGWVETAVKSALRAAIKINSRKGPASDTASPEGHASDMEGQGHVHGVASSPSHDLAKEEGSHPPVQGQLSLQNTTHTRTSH
Assay type: biochemical
Summary of the method: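 Ten-point, 1:3 compound titrations were fitted by four-parameter sigmoidal regression to give EC50. Resorufin fluorescence (544/590 nm) from Amplex Red/HRP-coupled H2O2 detection was read 120 min after adding 1 mM each aromatic amino acid to 1 nM IL4I1, following a 4 h compound pre-incubation in pH 7.0 Hepes buffer.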
`O=C1C(=O)N2CCCCC2CN1Cc1nnc(-c2ccccc2)s1` (single isomer, unassigned) [Example 182, (R or S)-2-((5-phenyl-1,3,4-thiadiazol-2-yl)methyl)hexahydro-2H-pyrido[1,2-a]pyrazine-3,4-dione] showed an EC50 of 14 nM. For `O=C1C(=O)N(C2CCC2)CCN1Cc1ccc(-c2ccccc2)nn1` [Example 12, 1-cyclobutyl-4-((6-phenylpyridazin-3-yl)methyl)piperazine-2,3-dione], the EC50 was 8 nM. In the case of `O=C1C(=O)N(C2CCCC2)CCN1Cc1ccc(-n2nccn2)cc1F` [Example 379, 1-cyclopentyl-4-(2-fluoro-4-(2H-1,2,3-triazol-2-yl)benzyl)piperazine-2,3-dione], the EC50 is reported as 24 nM. `O=c1c(=O)n(C23CC(F)(C2)C3)ccn1Cc1ccc(-n2nccn2)nc1` [Example 255, 1-((6-(2H-1,2,3-triazol-2-yl)pyridin-3-yl)methyl)-4-(3-fluorobicyclo[1.1.1]pentan-1-yl)-1,4-dihydropyrazine-2,3-dione] was tested, and the EC50 was 47 nM. `O=C1C(=O)N(C2CCCC2)CCN1Cc1ccc(-c2cn[nH]c2)cc1F` [Example 23, 1-cyclopentyl-4-(2-fluoro-4-(1H-pyrazol-4-yl)benzyl)piperazine-2,3-dione] gave an EC50 of 21 nM. Compound `O=C1C(=O)N(C2CCC2)CCN1Cc1ccc(-n2ncnn2)cn1` [Example 176, 1-((5-(2H-tetrazol-2-yl)pyridin-2-yl)methyl)-4-cyclobutylpiperazine-2,3-dione] has an EC50 of 40 nM. With `O=C1C(=O)N(C2CCC2)CCN1Cc1ccc(-c2cccc(F)c2F)nn1` [Example 21, 1-cyclobutyl-4-((6-(2,3-difluorophenyl)pyridazin-3-yl)methyl)piperazine-2,3-dione] the EC50 was 14 nM. With `O=c1c(=O)n(C2(CF)CC2)ccn1Cc1ccc(-c2cccnc2)nn1` [Example 227, 1-(1-(fluoromethyl)cyclopropyl)-4-((6-(pyridin-3-yl)pyridazin-3-yl)methyl)-1,4-dihydropyrazine-2,3-dione] the EC50 was 69 nM. `O=c1c(=O)n(C2CCC2)ccn1Cc1nnc(-c2ccccn2)s1` [Example 370, 1-cyclobutyl-4-((5-(pyridin-2-yl)-1,3,4-thiadiazol-2-yl)methyl)-1,4-dihydropyrazine-2,3-dione] gave an EC50 of 20 nM. Compound `O=C1C(=O)N(C2CCCC2)CCN1Cc1cnc(-c2ccccc2)cn1` [Example 271, 1-cyclopentyl-4-((5-phenylpyrazin-2-yl)methyl)piperazine-2,3-dione] has an EC50 of 14 nM. Work on `O=c1c(=O)n(C23CC(C2)C3)ccn1Cc1nnc(-c2ccccc2F)s1` [Example 68, 1-(bicyclo[1.1.1]pentan-1-yl)-4-((5-(2-fluorophenyl)-1,3,4-thiadiazol-2-yl)methyl)-1,4-dihydropyrazine-2,3-dione] yielded an EC50 of 5 nM. `O=C1C(=O)N(C2CCCC2)CCN1Cc1nnc(-c2ccccc2F)s1` [Example 13, 1-cyclopentyl-4-((5-(2-fluorophenyl)-1,3,4-thiadiazol-2-yl)methyl)piperazine-2,3-dione] was tested, and the EC50 was 8 nM. For `O=c1c(=O)n(C2CCCC2)ccn1Cc1cc(-c2cccc(F)c2)no1` [Example 155, 1-cyclopentyl-4-((3-(3-fluorophenyl)isoxazol-5-yl)methyl)-1,4-dihydropyrazine-2,3-dione], the EC50 was 2 nM. `O=c1c(=O)n(C23CC(F)(C2)C3)ccn1Cc1cc(-c2ccccn2)on1` [Example 208, 1-(3-fluorobicyclo[1.1.1]pentan-1-yl)-4-((5-(pyridin-2-yl)isoxazol-3-yl)methyl)-1,4-dihydropyrazine-2,3-dione] was tested, and the EC50 was 21 nM. Work on `O=C1C(=O)N(C2CCCC2)CCN1Cc1ccc(-c2ccccc2)cc1F` [Example 100, 1-cyclopentyl-4-((3-fluoro-[1,1′-biphenyl]-4-yl)methyl)piperazine-2,3-dione] yielded an EC50 of 8 nM. For `O=C1C(=O)N(C2CCCC2)CCN1Cc1ccc(-c2cccc(F)c2)nn1` [Example 14, 1-cyclopentyl-4-((6-(3-fluorophenyl)pyridazin-3-yl)methyl)piperazine-2,3-dione], the EC50 was 6 nM. For `O=C1C(=O)N(C2CCCC2)CCN1Cc1ccc(-c2cncs2)cc1F` [Example 19, 1-cyclopentyl-4-(2-fluoro-4-(thiazol-5-yl)benzyl)piperazine-2,3-dione], the EC50 was 7 nM. `N#CC1(n2ccn(Cc3ccc(-n4cccn4)cn3)c(=O)c2=O)CC1` [Example 386, 1-(4-((5-(1H-pyrazol-1-yl)pyridin-2-yl)methyl)-2,3-dioxo-3,4-dihydropyrazin-1(2H)-yl)cyclopropane-1-carbonitrile] showed an EC50 of 225 nM. `CC1(n2ccn(Cc3ccc(-n4nccn4)cn3)c(=O)c2=O)CC1` [Example 202, 1-((5-(2H-1,2,3-triazol-2-yl)pyridin-2-yl)methyl)-4-(1-methylcyclopropyl)-1,4-dihydropyrazine-2,3-dione] was tested, and the EC50 was 44 nM. `O=c1c(=O)n(C2CCCC2)ccn1Cc1nnc(-c2ccc(F)cc2)s1` [Example 35, 1-cyclopentyl-4-((5-(4-fluorophenyl)-1,3,4-thiadiazol-2-yl)methyl)-1,4-dihydropyrazine-2,3-dione] was tested, and the EC50 was 3 nM. For `O=C1C(=O)N([C@H]2C[C@H]3C[C@H]3C2)CCN1Cc1nnc(-c2ccccc2F)s1` [Example 44, 1-((cis)-bicyclo[3.1.0]hexan-3-yl)-4-((5-(2-fluorophenyl)-1,3,4-thiadiazol-2-yl)methyl)piperazine-2,3-dione], the EC50 was 7 nM. Compound `O=C1C(=O)N(C23CC(C2)C3)CCN1Cc1ccc(-n2nccn2)cn1` [Example 359, 1-((5-(2H-1,2,3-triazol-2-yl)pyridin-2-yl)methyl)-4-(bicyclo[1.1.1]pentan-1-yl)piperazine-2,3-dione] has an EC50 of 22 nM. With `O=C1C(=O)N(C2CCCC2)CCN1CCc1cc(-c2ccccc2)on1` [Example 119, 1-cyclopentyl-4-(2-(5-phenylisoxazol-3-yl)ethyl)piperazine-2,3-dione] the EC50 was 4 nM. `O=c1c(=O)n(C2(CF)CC2)ccn1Cc1ccc(-c2ccccn2)nn1` [Example 239, 1-(1-(fluoromethyl)cyclopropyl)-4-((6-(pyridin-2-yl)pyridazin-3-yl)methyl)-1,4-dihydropyrazine-2,3-dione] showed an EC50 of 82 nM. With `O=C1C(=O)N(C2CC(c3ccccc3)C2)CCN1Cc1ncc(-c2ccccc2)cn1` (stereo not drawn) [Example 141, 1-(3-phenylcyclobutyl)-4-((5-phenylpyrimidin-2-yl)methyl)piperazine-2,3-dione] the EC50 was 23 nM. `O=C1C(=O)N(C2CCCC2)CCN1Cc1ccc(-n2nccn2)cc1` [Example 140, 1-(4-(2H-1,2,3-triazol-2-yl)benzyl)-4-cyclopentylpiperazine-2,3-dione] gave an EC50 of 36 nM. In the case of `O=c1c(=O)n(C2(CF)CC2)ccn1Cc1cc(-c2ccccn2)no1` [Example 225, 1-(1-(fluoromethyl)cyclopropyl)-4-((3-(pyridin-2-yl)isoxazol-5-yl)methyl)-1,4-dihydropyrazine-2,3-dione], the EC50 is reported as 41 nM. Compound `O=C1C(=O)N(C2CCCC2)CCN1Cc1ccc(-c2nccs2)nc1` [Example 364, 1-cyclopentyl-4-((6-(thiazol-2-yl)pyridin-3-yl)methyl)piperazine-2,3-dione] has an EC50 of 17 nM. With `O=c1c(=O)n(C2(CF)CC2)ccn1Cc1ccc(-n2nccn2)cn1` [Example 216, 1-((5-(2H-1,2,3-triazol-2-yl)pyridin-2-yl)methyl)-4-(1-(fluoromethyl)cyclopropyl)-1,4-dihydropyrazine-2,3-dione] the EC50 was 60 nM. Work on `O=C1C(=O)N(C2C[C@@H]3C[C@@H]3C2)CCN1Cc1ccc(-c2ccccc2)nn1` (stereo partly drawn) [Example 284, 1-((cis)-bicyclo[3.1.0]hexan-3-yl)-4-((6-phenylpyridazin-3-yl)methyl)piperazine-2,3-dione] yielded an EC50 of 8 nM. In the case of `O=C1C(=O)N(C2CCCC2)CCN1Cc1ncc(-c2nccs2)cc1F` [Example 139, 1-cyclopentyl-4-((3-fluoro-5-(thiazol-2-yl)pyridin-2-yl)methyl)piperazine-2,3-dione], the EC50 is reported as 26 nM. For `O=c1c(=O)n(C2CCC2)ccn1Cc1cnc(-c2ccccc2)cn1` [Example 127, 1-cyclobutyl-4-((5-phenylpyrazin-2-yl)methyl)-1,4-dihydropyrazine-2,3-dione], the EC50 was 3 nM. With `O=C1C(=O)N(C2CCC2)CCN1Cc1ccc(-c2cccc(F)c2)nn1` [Example 20, 1-cyclobutyl-4-((6-(3-fluorophenyl)pyridazin-3-yl)methyl)piperazine-2,3-dione] the EC50 was 5 nM. `O=c1c(=O)n(C2CCC2)ccn1Cc1ccc(-c2ccccc2F)nc1` [Example 72, 1-cyclobutyl-4-((6-(2-fluorophenyl)pyridin-3-yl)methyl)-1,4-dihydropyrazine-2,3-dione] showed an EC50 of 2 nM. In the case of `COc1ccc(C2(N3CCN(Cc4nnc(-c5ccccc5)s4)C(=O)C3=O)CC2)nc1` [Example 297, 1-(1-(5-methoxypyridin-2-yl)cyclopropyl)-4-((5-phenyl-1,3,4-thiadiazol-2-yl)methyl)piperazine-2,3-dione], the EC50 is reported as 83 nM. Compound `O=C1C(=O)N(C2CCC2)CCN1Cc1ncc(-c2ccccc2)s1` [Example 69, 1-cyclobutyl-4-((5-phenylthiazol-2-yl)methyl)piperazine-2,3-dione] has an EC50 of 3 nM. `O=C1C(=O)N([C@H]2C[C@H]3C[C@H]3C2)CCN1Cc1cnc(-c2ccccc2)cn1` [Example 129, 1-((cis)-bicyclo[3.1.0]hexan-3-yl)-4-((5-phenylpyrazin-2-yl)methyl)piperazine-2,3-dione] showed an EC50 of 6 nM. Work on `O=c1c(=O)n([C@H]2C[C@@H](c3ccccc3)C2)ccn1Cc1nnc(-c2nccs2)s1` [Example 372, 1-((cis)-3-phenylcyclobutyl)-4-((5-(thiazol-2-yl)-1,3,4-thiadiazol-2-yl)methyl)-1,4-dihydropyrazine-2,3-dione] yielded an EC50 of 23 nM. In the case of `O=C1C(=O)N([C@H]2C[C@H]3C[C@H]3C2)CCN1Cc1cc(-c2ccccc2)no1` [Example 170, 1-((cis)-bicyclo[3.1.0]hexan-3-yl)-4-((3-phenylisoxazol-5-yl)methyl)piperazine-2,3-dione], the EC50 is reported as 4 nM.
